# US8877741B2, “Pyrrolidine derivatives, pharmaceutical compositions and uses thereof” (Boehringer Ingelheim International GmbH, priority 2013, dated 2014)
# Biological target: human ACC2 (Homo sapiens (Human), UniProt O00763)
# Test: ACC2 assay, spectrophotometric 384 well assay (NADH-linked kinetic method)
# Assay type: biochemical
# Conditions: human ACC2 construct lacking the 128 N-terminal amino acids; coupled lactate dehydrogenase/pyruvate kinase reaction, 340 nm, 25° C.
# Protocol: Spectrophotometric 384 Well Assay
# Malonyl CoA formation by acetyl CoA carboxylases is stoichometrically linked to the consumption of ATP. ACC2 activity is measured in a NADH-linked kinetic method measuring ADP generated during the ACC reaction using a coupled lactate dehydrogenase/pyruvate kinase reaction.
# For biological testing, a human ACC2 construct which lacks the 128 amino acids at the N-terminus for increased solubility (nt 385-6966 in Genbank entry AJ575592) is cloned. The protein is then expressed in insect cells using a baculoviral expression system. Protein purification is performed by anion exchange.
# All compounds are dissolved in dimethyl sulfoxide (DMSO) to a concentration of 10 mM.
# The enzymatic reaction is then started by addition of a mixture of NADH, acetyl Coenzyme A (both 2000 μM f.c.) and ATP (500 uM f.c.). The decrease of the optical density (slope S) is then determined at 25° C. at a wavelength of 340 nm over 15 minutes in a spectrophotometric reader.
# Each assay microtiter plate contains wells with vehicle instead of compound as controls for the non-inhibited enzyme (100% CTL; ‘HIGH’) and wells without acetyl-CoA as controls for non-specific NADH degradation (0% CTL; ‘LOW’).
# The slope S is used for calculation of % CTL=(S(compound)−S(‘LOW’))/(S(‘HIGH’)−S(‘LOW’))*100.
# For IC50 value determination, the sample slope in the presence of the test compound after subtraction of the low controls (S(compound)−S(‘LOW’)) are used.
# An IC50 value is derived from the compound slopes at different dosages after subtraction of the low controls (S(compound)−S(‘LOW’)) by non-linear regression curve fitting (equation y=(A+((B−A)/(1+((C/x)^D))))).
# human ACC2, sequence (O00763 129-2458): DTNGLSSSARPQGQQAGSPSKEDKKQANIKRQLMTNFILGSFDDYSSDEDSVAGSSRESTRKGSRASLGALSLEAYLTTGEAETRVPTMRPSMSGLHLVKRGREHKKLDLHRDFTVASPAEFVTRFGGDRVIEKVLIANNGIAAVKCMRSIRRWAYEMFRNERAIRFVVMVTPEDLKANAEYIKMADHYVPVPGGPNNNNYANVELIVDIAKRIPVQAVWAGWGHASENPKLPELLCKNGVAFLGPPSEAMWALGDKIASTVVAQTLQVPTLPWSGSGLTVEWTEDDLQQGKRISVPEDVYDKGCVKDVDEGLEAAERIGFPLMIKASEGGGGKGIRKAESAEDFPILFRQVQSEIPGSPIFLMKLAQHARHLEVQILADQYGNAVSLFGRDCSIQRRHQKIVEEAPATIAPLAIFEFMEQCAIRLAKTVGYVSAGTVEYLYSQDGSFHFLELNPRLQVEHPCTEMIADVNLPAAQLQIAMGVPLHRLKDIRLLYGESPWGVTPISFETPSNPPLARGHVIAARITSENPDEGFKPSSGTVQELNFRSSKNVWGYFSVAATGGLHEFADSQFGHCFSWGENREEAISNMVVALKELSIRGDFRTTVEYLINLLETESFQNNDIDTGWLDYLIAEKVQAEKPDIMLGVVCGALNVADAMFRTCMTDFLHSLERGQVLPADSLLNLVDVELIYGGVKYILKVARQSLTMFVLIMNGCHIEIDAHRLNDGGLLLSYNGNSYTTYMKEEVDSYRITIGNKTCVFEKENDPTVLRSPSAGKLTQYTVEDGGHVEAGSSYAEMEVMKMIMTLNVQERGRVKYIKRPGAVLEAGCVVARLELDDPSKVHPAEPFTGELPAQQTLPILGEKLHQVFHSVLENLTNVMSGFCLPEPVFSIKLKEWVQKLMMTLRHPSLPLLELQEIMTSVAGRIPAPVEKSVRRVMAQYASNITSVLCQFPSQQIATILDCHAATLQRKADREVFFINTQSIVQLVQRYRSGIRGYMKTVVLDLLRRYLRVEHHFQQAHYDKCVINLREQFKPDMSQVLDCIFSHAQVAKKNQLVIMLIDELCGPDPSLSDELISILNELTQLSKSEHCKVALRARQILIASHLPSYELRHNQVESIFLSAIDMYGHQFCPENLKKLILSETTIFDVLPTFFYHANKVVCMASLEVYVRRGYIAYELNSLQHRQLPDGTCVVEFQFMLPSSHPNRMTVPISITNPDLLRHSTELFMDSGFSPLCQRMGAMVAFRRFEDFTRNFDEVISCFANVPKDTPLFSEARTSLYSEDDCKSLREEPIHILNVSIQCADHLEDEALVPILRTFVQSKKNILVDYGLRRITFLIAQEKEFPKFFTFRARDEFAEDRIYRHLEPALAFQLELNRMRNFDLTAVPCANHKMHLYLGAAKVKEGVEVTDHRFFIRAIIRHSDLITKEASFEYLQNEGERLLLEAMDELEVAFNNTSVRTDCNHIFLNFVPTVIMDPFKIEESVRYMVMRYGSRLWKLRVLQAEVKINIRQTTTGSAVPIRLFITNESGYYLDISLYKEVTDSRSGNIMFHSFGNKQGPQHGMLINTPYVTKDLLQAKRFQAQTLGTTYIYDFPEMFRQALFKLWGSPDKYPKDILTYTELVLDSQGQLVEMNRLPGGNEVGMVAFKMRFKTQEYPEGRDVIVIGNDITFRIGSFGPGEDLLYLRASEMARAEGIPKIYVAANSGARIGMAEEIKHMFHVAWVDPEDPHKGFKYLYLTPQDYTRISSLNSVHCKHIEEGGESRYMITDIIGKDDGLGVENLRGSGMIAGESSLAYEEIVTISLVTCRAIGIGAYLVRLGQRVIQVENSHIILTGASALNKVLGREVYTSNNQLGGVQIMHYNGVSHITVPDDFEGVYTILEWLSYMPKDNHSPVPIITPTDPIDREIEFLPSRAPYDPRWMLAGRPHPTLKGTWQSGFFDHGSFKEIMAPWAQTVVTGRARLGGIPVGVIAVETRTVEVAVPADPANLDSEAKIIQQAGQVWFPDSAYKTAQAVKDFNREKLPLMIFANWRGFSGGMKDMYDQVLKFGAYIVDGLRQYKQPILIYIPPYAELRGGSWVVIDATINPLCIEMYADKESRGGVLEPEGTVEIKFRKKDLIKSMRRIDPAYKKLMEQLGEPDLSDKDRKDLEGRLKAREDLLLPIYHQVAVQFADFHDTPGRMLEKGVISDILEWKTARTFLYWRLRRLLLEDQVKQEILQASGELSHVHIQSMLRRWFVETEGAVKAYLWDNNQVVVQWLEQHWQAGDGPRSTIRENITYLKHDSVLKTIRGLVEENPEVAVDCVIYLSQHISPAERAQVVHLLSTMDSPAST
row,SMILES,IC50
1,"CC(=O)N[C@@H](C)c1ccc(O[C@@H]2CCN(c3ccc(OCC4CC4(F)F)cn3)C2)cc1 (stereo partly drawn) [Example 1.1, N—((1S)-1-(4-((3R)-1-(5-((2,2-Difluorocyclopropyl)methoxy)pyridin-2-yl)pyrrolidin-3-yloxy)phenyl)ethyl)acetamide]",0.046 µM
2,CCOc1ccc(N2CCC(Oc3ccc([C@H](C)NC(C)=O)cc3)C2)cn1 (stereo partly shown) [Example 1.5],0.51 µM
3,CCOc1ccc(N2CCC(Oc3ccc([C@H](C)NC(C)=O)cc3)C2)nc1 (stereo partly shown) [Example 1.6],0.306 µM
4,CC(=O)N[C@@H](C)c1ccc(OC2CCN(c3ccc(OCC(C)C)cn3)C2)cc1 (stereo partly shown) [Example 1.8],0.375 µM
5,CCOc1cnc(N2CCC(Oc3ccc([C@H](C)NC(C)=O)cc3)C2)c(F)c1 (stereo partly shown) [Example 1.9],0.556 µM
6,CC(=O)N[C@@H](C)c1ccc(OC2CCN(c3ccc(OC(C)C)nc3)C2)cc1 (stereo partly shown) [Example 1.10],0.832 µM
7,CCOc1cc(N2CCC(Oc3ccc([C@H](C)NC(C)=O)cc3)C2)ccn1 (stereo partly shown) [Example 1.12],0.265 µM
8,CCCOc1ccc(N2CCC(Oc3ccc([C@H](C)NC(C)=O)cc3)C2)c(C#N)n1 (stereo partly shown) [Example 1.13],0.345 µM
9,CC(=O)N[C@@H](C)c1ccc(OC2CCN(c3ccc(OCC4CC4)nc3)C2)cc1 (stereo partly shown) [Example 1.14],0.394 µM
10,CC(=O)N[C@@H](C)c1ccc(OC2CCN(c3ccc(OC4CCC4)nc3)C2)cc1 (stereo partly shown) [Example 1.21],0.335 µM
11,CCOc1cc(N2CCC(Oc3ccc([C@H](C)NC(C)=O)cc3)C2)c(C)cn1 (stereo partly shown) [Example 1.24],0.447 µM
12,CC(=O)N[C@@H](C)c1ccc(OC2CCN(c3cc(OCC4CC4)ncc3C)C2)cc1 (stereo partly shown) [Example 1.25],0.228 µM
13,CCC(C)Oc1ccc(N2CCC(Oc3ccc([C@H](C)NC(C)=O)cc3)C2)nc1 (stereo partly shown) [Example 1.28],0.245 µM

# More lines, in order of falling IC50, values ahead:
row,IC50,SMILES
1,0.193 µM,CCCOc1ccc(N2CCC(Oc3ccc([C@H](C)NC(C)=O)cc3)C2)cn1 (stereo partly shown) [Example 1.4]
2,0.167 µM,CC(=O)N[C@@H](C)c1ccc(OC2CCN(c3cccc(C)n3)C2)cc1 (stereo partly shown) [Example 1.18]
3,0.151 µM,CCCOc1cnc(N2CCC(Oc3ccc([C@H](C)NC(C)=O)cc3)C2)c(F)c1 (stereo partly shown) [Example 1.11]
4,0.146 µM,CCCOc1ccc(N2CCC(Oc3ccc([C@H](C)NC(C)=O)cc3)C2)nc1 (stereo partly shown) [Example 1.2]
5,0.139 µM,CC(=O)N[C@@H](C)c1ccc(OC2CCN(c3ccc(OCCC4CC4)cn3)C2)cc1 (stereo partly shown) [Example 1.31]
6,0.137 µM,CC(=O)N[C@@H](C)c1ccc(OC2CCN(c3ncc(OCC4CC4)cc3F)C2)cc1 (stereo partly shown) [Example 1.7]
7,0.134 µM,CC(=O)N[C@@H](C)c1ccc(OC2CCN(c3ccnc(OC(C)C)c3)C2)cc1 (stereo partly shown) [Example 1.3]
8,0.13 µM,CC(=O)N[C@@H](C)c1ccc(OC2CCN(c3ccc(OCCC(F)(F)F)cn3)C2)cc1 (stereo partly shown) [Example 1.29]
9,0.117 µM,CCOc1cc(N2CCC(Oc3ccc([C@H](C)NC(C)=O)cc3)C2)c(F)cn1 (stereo partly shown) [Example 1.30]
10,0.115 µM,CC(=O)N[C@@H](C)c1ccc(OC2CCN(c3ncc(OCC4CC4(F)F)cc3F)C2)cc1 (stereo partly shown) [Example 1.23]
11,0.114 µM,CCCOc1cc(N2CCC(Oc3ccc([C@H](C)NC(C)=O)cc3)C2)ccn1 (stereo partly shown) [Example 1.16]
12,0.114 µM,CC(=O)N[C@@H](C)c1ccc(OC2CCN(c3ccc(OC4CCC4)cn3)C2)cc1 (stereo partly shown) [Example 1.26]
13,0.104 µM,CC(=O)N[C@@H](C)c1ccc(OC2CCN(c3ncc(OC(C)C)cc3F)C2)cc1 (stereo partly shown) [Example 1.22]
14,0.07 µM,CC(=O)N[C@@H](C)c1ccc(OC2CCN(c3ccc(OC4CCCC4)cn3)C2)cc1 (stereo partly shown) [Example 1.27]
15,0.065 µM,CC(=O)N[C@@H](C)c1ccc(OC2CCN(c3ncc(OC4CCC4)cc3F)C2)cc1 (stereo partly shown) [Example 1.20]
16,0.06 µM,CC(=O)N[C@@H](C)c1ccc(OC2CCN(c3ccnc(OCC4CC4)c3)C2)cc1 (stereo partly shown) [Example 1.15]
17,0.054 µM,CC(=O)N[C@@H](C)c1ccc(OC2CCN(c3ccnc(OCC4CC4(F)F)c3)C2)cc1 (stereo partly shown) [Example 1.19]
18,0.05 µM,CC(=O)N[C@@H](C)c1ccc(OC2CCN(c3ncc(OC4CCCC4)cc3F)C2)cc1 (stereo partly shown) [Example 1.32]
